The values that follow come from a melting point compilation (Tetko et al.; mined from patent text by program, amines drawn as free bases though some values may be those of a salt).

On to `COC(=O)c1cc(N)nc(-c2ccc(Cl)cc2F)n1`, for which the melting point (as a rule, the temperature, or range, at which the solid turns liquid) lay in the range of 210 to 213 °C.

The molecule `CN1CCC(OC2c3ccccc3CCn3c2nc(I)c3I)CC1` (configuration not stated) registered a melting point of 163 °C. In turn, `CNC(=O)COc1cc(C)ccc1O` showed a melting point of 163 to 165 °C.

Consider `CN(C)C=NC(C#N)=CN(C)C`, for which the melting point is 78 to 81 °C.

`Cn1nc2c(-c3ccc(Cl)cc3Cl)cccc2c1-n1cnnc1` had a melting point of 118 to 121 °C.

`O=C(Nc1ccncc1)c1cc2ccnc(Cl)c2[nH]1`: the melting point was more than 320 °C. The molecule `CCCc1nn(-c2ccc(C(F)(F)F)cn2)cc1CCCOc1cc(CCC(=O)O)n(C)n1` had a melting point of 80 to 81 °C. `Cn1nccc1CCS(=O)Cc1ccc(OCc2coc(/C=C/c3ccc(OC(F)(F)F)cc3)n2)cc1` (configuration not stated) came in with a melting point of 138 to 139 °C. Consider `COc1cnccc1CCCOc1cccnc1Oc1ccccc1`, for which the melting point fell in the range of 101 to 102 °C. For the molecule `CCN(CC)c1ccc2cc([N+](=O)[O-])c(=O)oc2c1`, the melting point was in the range of 193 to 195 °C. `Cc1ccc(-c2cc(=O)cc(C(=O)O)o2)cc1`: the melting point lay within 237 to 238 °C. To `CCCc1c(SCCCOc2ccc3c(=O)cc(CCC(=O)O)oc3c2CCC)ccc(C(C)=O)c1O` belongs 122 to 124 °C.

In turn, `CCCc1c(OCCCCCCc2cccc(OCCCC(=O)O)c2CCC(=O)O)ccc2c1OCCC2=O` came in with a melting point of 116 to 118 °C. With `O=Cc1cc(Cl)ccc1Oc1ccccc1[N+](=O)[O-]`, the melting point is 103 to 105 °C. `COc1ccc2cc(-c3ccccc3)cc(CCNC(C)=O)c2c1` returned a melting point of 135 °C.

For the molecule `O=c1c2ccccc2[nH]n2cccc12`, the melting point was more than 300 °C. On to `NC(=O)N(O)Cc1ccc(Sc2ccc(Cl)cc2)s1`, for which the melting point fell in the range of 158 to 160 °C. To `Cc1c(C)c2ccc(OCCCN3CCC(NC(=O)c4ccc(N)cc4)CC3)cc2oc1=O` belongs 242 to 245 °C. The same measure for `COc1cccc2c(=O)c3ccc(Cl)cc3oc12`: 201 to 202 °C.

In turn, `CC(C)CC(=O)Nc1ccccc1` returned a melting point of 67 to 68 °C. In turn, `CCN(CC)CCOc1ccc(Nc2ncc3c(=O)n(Cc4ccc(OC)cc4)c(=O)n(C(C)C)c3n2)cc1` displayed a melting point of 139 to 141 °C. In the case of `CCNc1cc(OC)ccc1S(=O)(=O)N1C(=O)C(N)(c2ccccc2Cl)c2cc(Cl)ccc21` (configuration not stated), the melting point was 192 to 196 °C. The molecule `COc1ccc(-c2cc(CO)c(=O)n(Cc3ccc(F)cc3)n2)cc1F` had a melting point of 127 to 130 °C.

As to `CC(C)(Sc1cc(C(C)(C)C)c(O)c(C(C)(C)C)c1)Sc1cc(C(C)(C)C)c(OCCO)c(C(C)(C)C)c1`, the melting point fell in the range of 146 to 147 °C. Turning to `NS(=O)(=O)c1ccc(NC(=O)CNc2ccccc2)c(Br)c1`, the melting point lay in the range of 179 to 181 °C.

`OCc1cccc2c(Br)c3ccccc3cc12` yielded a melting point of 125 to 127 °C. `COc1cc(OC)nc(NC(=O)NS(=O)(=O)c2ccccc2C2=NOCCO2)n1` showed a melting point of 189 °C. In turn, `CCC(C(CC(=O)OC)c1ccc2c(c1)OCO2)[N+](=O)[O-]` (configuration not stated) had a melting point of 185 to 189 °C.

`Cc1ccc(N2CCCCC2)c(C(C)C(C(N)=O)c2ccc(C(=O)O)cc2)c1` (configuration not stated) yielded a melting point of 215 to 217 °C. Molecule `Cc1c(F)cccc1NN` showed a melting point of 69 °C. `O=C1NCN2c3ccccc3Oc3cccc1c32` had a melting point of more than 300 °C.

Take `COc1ccc(-c2nc(C)nn2-c2ccc(S(N)(=O)=O)cc2)cc1OC`: the melting point is 176 to 178 °C. In turn, `O=c1c(-c2ccccc2)c(Cn2cnc3ccccc32)oc2ccccc12` yielded a melting point of 186 to 191 °C. In turn, `CCc1ccc2sc3cc(-c4nnn[nH]4)ccc3c(=O)c2c1` showed a melting point of 247 °C. In turn, `Cc1cc(Cn2nnc(C(N)=O)c2N)cc(Cl)c1C(=O)c1ccc(Cl)cc1` had a melting point of 205 to 206 °C.

As for `CC1(C)Oc2ccc([N+](=O)[O-])cc2C(n2ccccc2=O)=C1NC(=O)C(F)(F)F`, the melting point was 189 °C.

The molecule `CC(=Cc1ccccc1)c1ccc2c(c1)C(C)(C)CCN2C` registered a melting point of 69 to 71 °C. The molecule `CCCCCCCNC(=O)N(C)c1cccc(-c2ccc(C=C(OC)C(=O)OC)cc2)c1` gave a melting point of 93 °C.

Take `N=C(OCC1CC1)N1Cc2ccccc2-c2ccccc2C1`: the melting point lay within 80 to 83 °C. The molecule `O=C(CCCCCc1cccc2cncn12)NO` registered a melting point of 138 to 140 °C. To `COC1=CC(OC)(OC)C(I)C=C1C(=O)OCC(=O)c1ccccc1` (configuration not stated) belongs 146 °C; to `CCn1c2c(c3cc(OC)c(OC)cc3c1=O)C(=O)c1cc3c(cc1-2)OCO3`, 291 to 293 °C; to `COc1cc2c(cc1OC)CC(=O)N(Cc1ccccc1)CC2`, 141 to 142 °C. To `CCC(O)(CC(=O)OC(C)(C)C)c1cc2n(c(=O)c1COC(C)=O)Cc1cc3ccccc3nc1-2` (configuration not stated) belongs 195 to 196 °C. To `O=C(NCc1ccc([N+](=O)[O-])cn1)C(c1ccccc1)c1ccccc1` belongs 160 to 164 °C; to `O=C(O)COc1cc(NS(=O)(=O)c2cccs2)c2ccccc2c1O`, 155 to 157 °C; to `O=c1[nH]ncc2c1c(O)nc1cc(Cl)ccc12`, more than 350 °C. In turn, `COc1ccc(-c2nc(CN(C)c3ccccc3)nc3cc(OC)c(OC)cc23)cc1OC` registered a melting point of 141 to 143 °C. The same measure for `Cn1cc(CN2C(=O)C3(COc4cc5c(cc43)OCO5)c3ccccc32)ccc1=O` (configuration not stated): 115 to 118 °C. `O=C(NCCO[N+](=O)[O-])c1csc(C(=O)NCCO[N+](=O)[O-])n1` registered a melting point of 136 to 138 °C. For `C[C@@H](NC(=O)[C@@H](NC(=O)[C@H](CCCc1ccc(-c2ccccc2)c(Cl)c1)CC(=O)NO)C(C)(C)C)c1ccccc1`, the melting point was in the range of 107 to 109 °C. The same measure for `O=C1c2ccccc2C(=O)N1CCSCc1ccc(C2OCCO2)o1`: 83 to 85 °C; for `CCC1OC(=O)N(CCc2ccc(NC(=O)c3sc(C)nc3C)cc2)N=C1c1ccc(OC)c(OC)c1` (configuration not stated): 217 °C; for `COC1(c2ccc(C(C)(C)C)cc2)CC1C(=O)N[C@H](C)c1ccc(NS(C)(=O)=O)c(C)c1` (some centres not stated): 231 °C. Consider `O=C(N[C@H]1CC[C@H](CCN2CCN(c3nccc4c3OCC4)CC2)CC1)c1ccc2c(c1)OCO2`, for which the melting point came to 214 °C.

In turn, `COc1cc(OC)cc(-c2nc(C)nn2-c2ccc(S(N)(=O)=O)cn2)c1` registered a melting point of 195 to 196 °C.

Molecule `CNC(=O)c1ncn(-c2cc3c(=O)n(NS(C)(=O)=O)c(=O)[nH]c3cc2C(F)(F)F)n1` had a melting point of 257 to 260 °C. Molecule `CCOC(=O)C(Cl)=Cc1cc(NC(=O)C2=C(C(=O)N(C)C)CCCC2)ccc1Cl` registered a melting point of 161 to 164 °C. As for `Cn1cc(Oc2ccc(Cl)c(Cl)c2)c(=O)c(-c2cccc(C(F)(F)F)c2)c1`, the melting point fell in the range of 127 to 129 °C.

For `CCCCn1cc(C(=O)OCC)c(=O)c2oc3ccc(Cl)cc3c(=O)c21`, the melting point was 226 to 228 °C. Molecule `Cc1nc(-n2cnn(Cc3ccc(F)cc3)c2=O)sc1-c1nn[nH]n1` displayed a melting point of 136 to 139 °C. Regarding `CC(C)CC(=O)Nc1c(C(=O)c2cccc(Cl)c2)[nH]c2ccc([N+](=O)[O-])cc12`, the melting point fell in the range of 197 to 199 °C. The same measure for `NC(=O)c1c(Br)cc(Br)c(CCC(=O)O)c1Br`: 197 °C; for `CCOC(=O)C(CCc1ccccc1)NC1CSC(c2cccs2)CN(CC(=O)O)C1=O` (configuration not stated): 168 °C; for `CC(CO)(CO)C(=O)N1CCOCC1`: 95 to 97 °C. In the case of `CC(C)(C)NCC(O)COc1ccc(-c2nc(C(N)=O)c[nH]2)cc1` (configuration not stated), the melting point fell in the range of 149 to 154 °C. As to `CC(=O)c1c(-c2ccc(Cl)cc2)c(-c2ccc(Cl)cc2)nn(CCN(C)C)c1=O`, the melting point lay in the range of 149 to 150 °C. The molecule `CCCCOc1ccccc1-c1nc(Cl)cc(OCCC(C)C)n1` registered a melting point of 47 to 50 °C. For the molecule `COc1cc([N+](=O)[O-])ccc1N1C(=O)C(=O)N(c2cccc(Cl)c2)C1=O`, the melting point lay within 176 to 178 °C.

`O=S(=O)(Cl)c1ccc2cc(Oc3c(Cl)cc(C(F)(F)F)cc3Cl)ccc2c1` gave a melting point of 140 °C. To `CC1(C2CCCC2)Cc2cc(OCCCC(=O)O)c(Cl)c(Cl)c2C1=O` (configuration not stated) belongs 154 °C. With `COc1cc(-c2ncn(-c3ccc(C(F)(F)F)cc3)c2-c2ccc(N(C)C)cc2)cc(OC)c1OC`, the melting point was 215 to 217 °C. Regarding `CC1(C(=O)c2c[nH]c3ncc(-c4ccc(N5CCNCC5)cc4)nc23)CCCCC1`, the melting point was in the range of 214 to 216 °C.

For `OCc1csc(-n2cccc2)n1`, the melting point was 111 to 113 °C. Regarding `Cc1c(C(=O)Nc2cccc(C#N)c2N2CCC(N3CCOCC3)CC2)cnn1-c1ccc([N+](=O)[O-])cc1`, the melting point was 265 °C. `CC(c1ccccc1)n1cncc1C(N)=O` (configuration not stated) showed a melting point of 136 to 137 °C. In turn, `NN1CCNC1=C[N+](=O)[O-]` gave a melting point of 159 to 160 °C. The molecule `CCCCN1CCC(CNC(=O)c2ccc(N)n3c(Cl)c(CC)nc23)CC1` showed a melting point of 86 to 90 °C.

In turn, `Cc1cc2c3c(ccc2cc1Br)OC(=O)C3(C)C` came in with a melting point of 187 to 189 °C. `Nc1ncc(C#Cc2ccc(Cl)cc2)c(OC2CCC(=O)CC2)n1` gave a melting point of 168 to 172 °C. As for `CCCCCCCCCCC=C1SC(=S)N(CC(=O)O)C1=O`, the melting point is 61 to 63 °C. To `CCn1c(Br)c(Br)c(C#N)c1Br` belongs 108 to 110 °C; to `O=C1Nc2c(F)cc(CN3C(=O)CSC3=O)cc2C1=Cc1cc(CN2CCOCC2)c[nH]1`, 246 to 248 °C. The molecule `CC(=O)NC1(C#N)CC(C)(C)NC(C)(C)C1` displayed a melting point of 153 to 160 °C. For the molecule `CCCCCCCCS(=O)(=O)C(Cc1ccc(OCCN2CCCCC2)cc1)C(=O)NO` (configuration not stated), the melting point fell in the range of 69 to 70 °C.

In turn, `CN(c1cc(OC(F)(F)F)cc2cc(C3=NCCS3)[nH]c12)S(=O)(=O)c1cccs1` showed a melting point of 179 to 180 °C.

In turn, `Cc1ccc(S(=O)(=O)Nc2cccc3ccc(Oc4ccc5nc(COc6ccc(CC7SC(=O)NC7=O)cc6)n(C)c5c4)cc23)cc1` (configuration not stated) showed a melting point of 137 to 144 °C.
